{
  "source": "patent US12569170B2",
  "about": "“Paramagnetic sodium NMR macrocyclic-based biosensors, and associated methods” (Yale University, priority 2021, dated 2026)",
  "key": {"[1]": {"experiment": "In vitro ^23Na-NMR, two-compartment coaxial cylinder tube (^23Na shiftability)", "type": "physicochemical", "description": "The goal of these studies was to separate the total Na^+ signal (Na^+T) into distinct signals for blood (Na^+b), interstitial (Na^+e), and intracellular (Na^+i) pools (FIG. 1). The shifting mechanism induced by exogenous TmDOTP^5− and endogenous biological factors on the ^23Na chemical shift in vitro is depicted in FIGS. 1C-1G. A two-compartment coaxial cylinder NMR tube setup in vitro was used to mimic Na^+ in interstitial/intracellular pools. The inner (smaller) and outer (larger) compartments both contained 150 mM NaCl while the latter also contained TmDOTP^5− at various concentrations. The setup was subjected to several different pH and temperature conditions. The inner compartment, which lacked TmDOTP^5− to represent the intracellular space in vivo, produced a small but unshifted ^23Na peak at 0 ppm. The larger ^23Na peak was shifted downfield by TmDOTP^5−, with the difference in peak integrals stemming from different compartment volumes.\nThe ^23Na shiftability for TmDOTP^5− s[paraCA^n−]=[…] was 11.1×larger than the shiftability for pH (spH=0.25 ppm/pH unit) and 92.3×larger than the shiftability for temperature (sT=0.03 ppm/° C.). This means that addition of 1.1 mM TmDOTP^5− would induce a ˜3 ppm shift in the ^23Na peak. Conversely, a maximal change of 0.4 in pH units, which is observed between normal and tumor tissues, would induce only a ˜0.1 ppm ^23Na shift. A similar ^23Na shift by temperature would require a 3.3° C. change, which is unlikely in vivo. Based on the pH and temperature ranges observed in vivo (including tumors), the effect from [TmDOTP^5−] dominates the ^23Na chemical shift by 95%. Therefore, [TmDOTP^5−] is several orders of magnitude more sensitive in shifting the ^23Na resonance than typical in vivo factors. Furthermore, the ^23Na shiftability arising from [TmDOTP^5−] and pH/temperature effects is much larger than T2 broadening from TmDOTP^5− (FIG. 1C). […] (FIGS. 1D-1E). However, for in vivo scenarios the ranges shown for pH (2 full pH units) and temperature (15° C. interval) are overestimated, and where [Na^+] far exceeds [TmDOTP^5−] based on prior experiments. In blood and interstitial spaces, [Na^+] is ˜30-100×greater than [TmDOTP^5−].\nIn vitro experiments were performed using a 2-compartment coaxial cylindrical 7-inch NMR tube setup from WilmadLabGlass (Vineland, NJ, USA). One compartment contained 150 mM NaCl and the other contained the same but with varying amounts of TmDOTP^5− (1-10 mM) and 10% v/v ^2H2O to lock the spectrometer frequency using the ^2H2O signal. NaCl and ^2H2O were purchased from Sigma-Aldrich (St. Louis, MO, USA), and TmDOTP^5− was purchased as the sodium salt Na5TmDOTP from Macrocyclics (Plano, TX, USA). The 5-mm opening of the NMR tube permitted an insert (the inner compartment) whose 50-mm-long tip had inner and outer diameters of 1.258 and 2.020 mm, respectively. The outer-to-inner volume ratio between the two compartments was 8.6. The geometry of the setup allowed 645 μL total in the outer compartment to fill around the tip. Each solution was pH-adjusted using HCl or KOH to give 5 different pH values.\n^23Na-NMR spectra were collected on a Bruker Avance III HD 500 MHz vertical-bore spectrometer (Bruker, Billerica, MA, USA) interfaced with Bruker TopSpin v2.1 software. A Bruker 500 MHz TBO liquid broadband probe with z-gradient was used in all frequencies, and an inner coil was used to detect X-nuclei. A single ^23Na square pulse (50 μs) was used to globally excite the volume of interest (repetition time TR=275 ms) collecting 2048 free induction decay (FID) points in the time domain with an acquisition time taq=38.9 ms, averaged 4096 times. Each set of scans was repeated at a series of temperatures: 27, 30, 34, 37, and 40° C. Spectra were analyzed using 10 Hz line broadening (for improved delineation of major peaks and reduction of baseline noise) and manual zeroth- and first-order phasing. […]"}, "[2]": {"experiment": "Bulk magnetic susceptibility (BMS) contribution to chemical shift in phantoms", "type": "physicochemical", "conditions": "phantoms parallel, perpendicular to B0 and spherical", "description": "Upon translation of the present in vitro results to in vivo situations, certain confounding factors must be addressed. In the interstitial space, there are additional cations such as calcium (Ca^2+), magnesium (Mg^2+) and K^+ which will also bind to anionic contrast agents like TmDOTP^5−. However, physiologically their concentrations are low compared to Na^+. […] Additionally, there is a contribution to the chemical shift from bulk magnetic susceptibility (BMS) changes brought about by TmDOTP^5− in addition to the hyperfine shifts induced by interactions with Na^+. Experiments were performed on different DOTP^8− salts in phantoms parallel and perpendicular to the main magnetic field B0, and also spherical phantoms in which there was no BMS contribution. Only a small portion (˜2%) of the total chemical shift for TmDOTP^5− was due to BMS arising due to anisotropy of the paramagnetic susceptibility, and the remainder was the hyperfine shift."}, "[3]": {"experiment": "Comparison of ^23Na shiftability and broadening potential of DOTP agents", "type": "physicochemical"}, "[4]": {"conditions": "cited from earlier work"}, "U87-bearing rat brain": {"system": "U87-bearing rat brain", "experiment": "In vivo ^23Na-MRSI line broadening in glioma models", "conditions": "glioma models, after agent infusion", "description": "FIGS. 10C-10F illustrates images according to certain embodiments of the disclosure. […] However, the ^23Na linewidth analysis by TmDOTP^5− is confounded by its high ^23Na shiftability. This peak separation in vivo overestimates the full-width at half-maximum (FWHM) calculations and exaggerates the measured ^23Na linewidths.\nSlice 1 is most superficial, and slice 3 is the deepest. The tumor outline is depicted in white in all columns.\nThis establishes GdDOTP^5−-induced ^23Na linewidth broadening as a potential surrogate marker for the altered Na^+ biodistribution within tumors. Thus, in brain tumor models, TmDOTP^5− with ^23Na-NMR can separate Na^+ in intracellular, blood, and interstitial pools, while GdDOTP^5− can distinguish Na^+ within intracellular and extracellular (i.e., blood and interstitial) pools.\nBecause the majority of the present studies looked at ^23Na chemical shift, the line broadening capabilities of these paramagnetic agents were also interrogated. […] This is due to the high magnetic moment of Gd^3+ which contributes to some degree of anisotropy to the paramagnetic susceptibility. […] Crucially, this family of paramagnetic agents has allowed to insightful probing of the tumor microenvironment and drawing of significant conclusions about tumor aggressiveness based on spectroscopic analysis."}},
  "note": "“And” between values parts separate entries of the source, which are not always exact repeats. Equal entries are not always repeated. “Also recorded” adds a separate entry of the source.",
  "data": [
    {"smiles": "O=P([O-])([O-])CN1CCN(CP(=O)([O-])[O-])CCN(CP(=O)([O-])[O-])CCN(CP(=O)([O-])[O-])CC1.[Na+].[Na+].[Na+].[Na+].[Na+].[Tm+3]", "note": "[TmDOTP^5−, sodium thulium (III) 1,4,7,10-tetraazacyclododecane-1,4,7,10-tetrakis(methylenephosphonate)]", "values": [
      {"measurement": "^23Na shifts caused by in vivo agent concentrations", "setting": "[1]; 1-2 mM TmDOTP^5−", "value": "2.8-5.5 ppm"},
      {"measurement": "shift in the ^23Na peak induced by addition of agent", "setting": "[1]; addition of 1.1 mM TmDOTP^5−", "value": "~3", "unit": "ppm"},
      {"measurement": "^23Na shiftability for pH (spH)", "setting": "[1]; in vitro, 150 mM NaCl with TmDOTP^5−", "value": 0.25, "unit": "ppm/pH unit"},
      {"measurement": "^23Na shiftability for temperature (sT)", "setting": "[1]; in vitro, 150 mM NaCl with TmDOTP^5−, 27-40° C.", "value": 0.03, "unit": "ppm/° C."},
      {"measurement": "^23Na shift variation caused by pH", "setting": "[1]; maximal change of 0.4 pH units between normal and tumor tissue", "value": "~0.1", "unit": "ppm"},
      {"measurement": "shiftability for TmDOTP^5− relative to shiftability for pH", "setting": "[1]; ratio", "value": 11.1, "unit": "×"},
      {"measurement": "shiftability for TmDOTP^5− relative to shiftability for temperature", "setting": "[1]; ratio", "value": 92.3, "unit": "×"},
      {"measurement": "^23Na shift variation caused by temperature", "setting": "[1]; temperature difference ~0.5° C.", "value": 0.015, "unit": "ppm"},
      {"measurement": "share of the ^23Na chemical shift dominated by [TmDOTP^5−] effect", "setting": "[1]; versus pH and temperature ranges observed in vivo", "value": "95% and 96-98%"},
      {"measurement": "portion of the total chemical shift due to BMS", "setting": "[2]", "value": "~2", "unit": "%"},
      {"measurement": "broadening potential (sensitivity of linewidth to agent concentration), words", "setting": "[3]", "value": "high broadening potentials"},
      {"measurement": "shiftability (sensitivity of ^23Na chemical shift to agent concentration), words", "setting": "[3]", "value": "high shiftability"},
      {"measurement": "TmDOTP^5− in the cortex and subcortex", "setting": "[4]; infusion protocol with probenecid, without renal ligation", "value": "~0.1", "unit": "μmol TmDOTP^5−/g BW"},
      {"measurement": "in vivo concentrations in blood and interstitial spaces", "setting": "[4]; rat, in vivo", "value": "1 to 2", "unit": "mM"},
      {"measurement": "^23Na line broadening in tumor versus normal tissue", "setting": "U87-bearing rat brain", "value": "most prominent within the tumor; also recorded: substantial ^23Na line broadening within tumor models compared to normal tissue"}
    ]}
  ]
}
